Measurements taken from patent publication US20200289480A1, “PERGOLIDE FOR USE IN THE TREATMENT OF EYE DISEASES ASSOCIATED WITH AN ELEVATED LEVEL OF VASCULAR ENDOTHELIAL GROWTH FACTOR (VEGF) AND PHARMACEUTICAL COMPOSITION CONTAINING PERGOLIDE” (priority 2017, published 2020).

What was measured:
[1] = tested on: development of normal blood vessels; assay: zebrafish embryo model, development of normal blood vessels; format: in vivo, zebrafish (Danio rerio); details: for effect on the development of normal blood vessels: lower concentrations (below 2.5 μmol: 50 nmol, 100 nmol, 500 nmol, 1 μmol)
Description: (§1) In studies on the effect of various substances on VEGF release and action, among others, a laboratory model using zebrafish (Danio rerio) is employed. The study tested 3 substances with potential inhibitory activity towards VEGF release and action which belong to the group of dopaminergic receptor D2 agonists—bromocriptine, cabergoline and pergolide. The study was conducted on the model using transgenic zebrafish embryos (Zebrafish Fli strain) with labelled blood system, illuminating under the fluorescent microscope. Photographic documentation was collected using Stereo Discover v8 fluorescent microscope, fluorescence 200c hxp, from Carl Zeiss Microscopy GmbH. During the study, the development of normal blood vessels and pathological blood vessels (abnormal angiogenesis) was observed. Abnormal angiogenesis was induced with the use of cobalt chloride (CoCl2) in a dose of 5 mM which was administered to the culture medium. The study tested the inhibitory effect of bromocriptine, cabergoline and pergolide on the development of normal blood vessels, as well as the inhibition of abnormal angiogenesis in 5 increasing concentrations of these substances: 50 nmol, 100 nmol, 500 nmol, 1 μmol, 2.5 μmol, dissolved in dimethyl sulfoxide (DMSO) and administered to the culture medium. Any changes in the development of natural (FIG. 1) and pathological blood vessels (FIG. 2) were recorded 72 an 96 hours after the administration of a tested substance and a tested substance with CoCl2, respectively. The level of inhibition of normal and pathological blood vessels development in tested embryos was compared to the activity of bevacizumab (Avastin) at the concentration of 2.5 μg/ml, which is an anti-VEGF recombinant humanised monoclonal antibody (FIGS. 3).

[2] = tested on: pathological blood vessels (abnormal angiogenesis) induced with CoCl2; assay: zebrafish embryo model, CoCl2-induced abnormal angiogenesis; format: in vivo, zebrafish (Danio rerio); details: for effect on the development of pathological blood vessels: lower concentrations (below 2.5 μmol: 50 nmol, 100 nmol, 500 nmol, 1 μmol); for effect on the development of pathological blood vessels / inhibition of growth of pathological eye blood vessels / inhibition of growth of ventral vessels: CoCl2 5 mM; for inhibitory effect compared with other agents: qualitative comparison in the angiogenesis model
Description: as §1, with “3). 72 and 96 after CoCl2 administration, the increase in the number of pathological eye blood vessels and the abnormal morphology thereof in the eyes (FIG. 2) as well as of ventral vessels (FIGS. 4 and 5) was observed.” for “3).”

[3] = 2.5 μmol in culture medium, transgenic Zebrafish Fli embryos, recorded 72 and 96 hours
[4] = 2.5 μmol in culture medium, recorded 72 and 96 hours

Compound | effect on the development of normal blood vessels [1] | effect on the development of pathological blood vessels [2] | inhibition of growth of normal eye blood vessels [1, 3] | inhibition of growth of pathological eye blood vessels [2, 4] | inhibition of growth of ventral vessels [2, 4] | inhibition of abnormal ventral vessels growth ([2]; 2.5 μmol, 72 hours, FIG. 8) | effect on the development of ventral vessels ([2]; lower concentrations (below 2.5 μmol)) | inhibitory effect compared with other agents [2] | inhibition of growth of normal eye blood vessels ([1]; 1.0 μmol in culture medium) | inhibition of normal ventral vessels growth ([1]; 1 μmol, 72 hours, FIG. 9) | inhibition of growth of pathological eye blood vessels ([2]; 1.0 μmol in culture medium) | inhibition of growth of ventral vessels ([2]; 1.0 μmol in culture medium) | inhibitory effect on the development of normal and pathological blood vessels (overall conclusion) ([2]; conclusion from all concentrations tested) | inhibition of CoCl2-induced abnormal vascular growth (eye) ([2]; 2.5 μmol, 96 hours, FIG. 3)
CC(C)C[C@H]1C(=O)N2CCC[C@H]2[C@]2(O)O[C@](NC(=O)[C@@H]3C=C4c5cccc6[nH]c(Br)c(c56)C[C@H]4N(C)C3)(C(C)C)C(=O)N12 [bromocriptine] | no inhibitory effect | no inhibitory effect |  |  |  |  |  |  |  |  |  |  |  | 
C=CCN1C[C@H](C(=O)N(CCCN(C)C)C(=O)NCC)C[C@@H]2c3cccc4[nH]cc(c34)C[C@H]21 [cabergoline] | no significant effect | no significant effect | partial inhibition | full inhibition | full inhibition | Full inhibition | no significant effect | more potent compared to bromocriptine |  |  |  |  |  | 
CCCN1C[C@H](CSC)C[C@@H]2c3cccc4[nH]cc(c34)C[C@H]21 [pergolide] |  |  | full inhibition | full inhibition | full inhibition |  |  | more potent than for known agents | partial inhibition | Partial inhibition | full inhibition | full inhibition | potent inhibitory effect | 
bevacizumab |  |  |  |  |  |  |  |  |  |  |  |  |  | Inhibition
